Assay [1] deals with Human alphaherpesvirus 1. Nature of the assay: Antiviral activity against herpes simplex virus 1 at 80 ug/ml. The format is functional, organism-based.
Assay [2] has as its system Murine hepatitis virus. Nature of the assay: Antiviral activity against mouse coronavirus at 80 ug/ml. The format is functional, organism-based.
The test system of assay [3] is P388. The assay can be described thus: Cytotoxicity against mouse P388 cells at 10 ug/ml. The format is functional, cell-based.
Assay [4] deals with Murine hepatitis virus. The assay can be described thus: Antiviral activity against mouse coronavirus at 10 ug. The format is functional, organism-based.
Assay [5] concerns P388. Nature of the assay: Cytotoxicity against mouse P388 cells at 0.1 ug. The format is functional, cell-based.
Assay [6] relates to P388. The assay can be described thus: Cytotoxicity against mouse P388 cells at 13 ug/ml. The format is functional, cell-based.
Assay [7] has as its system Murine hepatitis virus. Nature of the assay: Antiviral activity against mouse coronavirus at 50 ug/ml. The format is functional, organism-based.
The test system of assay [8] is Murine hepatitis virus. The assay can be described thus: Antiviral activity against mouse coronavirus at 400 ug/ml. The format is functional, organism-based.
Assay [9] has as its system Human alphaherpesvirus 1. Nature of the assay: Antiviral activity against herpes simplex virus 1 at 20 ug. The format is functional, organism-based.

Each structure is given as a SMILES string. Calls of active or inactive are those of the source. The calls are words filed in the database; no cut-off is given here.

Take `C=C1/C=C\[C@H](OC(C)=O)[C@]2(C)[C@H]([C@@H](C)[C@H](OC(C)=O)[C@@H]3O[C@@H]32)[C@H](OC(C)=O)[C@]2(O)[C@@H](C)C(=O)O[C@H]2[C@H]1Cl`: the result in the assay with Human alphaherpesvirus 1 [1], in the assay on Murine hepatitis virus [2] and with P388 [3] was Active. On to `NC(=O)c1ncn([C@@H]2O[C@H](CO)[C@@H](O)[C@H]2O)n1`, for which the result in the assay on Murine hepatitis virus [4] was Active. For the compound `O=c1[nH]cc(F)c(=O)[nH]1`, in the assay with P388 [5], the outcome was Active. `C=C1/C=C\[C@H](OC(=O)CCC)[C@]2(C)[C@H]([C@@H](C)[C@H](OC(=O)CCC)[C@@H]3O[C@@H]32)[C@H](OC(C)=O)[C@]2(O)[C@@H](C)C(=O)O[C@H]2[C@H]1Cl`: the outcome in the assay with P388 [6] and in the assay on Murine hepatitis virus [7] was Active. `C=C1/C=C\[C@H](OC(=O)CCC)[C@]2(C)[C@H]([C@@H](C)[C@H](OC(C)=O)[C@@H]3O[C@@H]32)[C@H](OC(C)=O)[C@]2(O)[C@@H](C)C(=O)O[C@H]2[C@H]1Cl`: in the assay on Murine hepatitis virus [8], the result was Active.

In the case of `Nc1ncnc2c1ncn2[C@@H]1O[C@H](CO)[C@@H](O)[C@@H]1O`, the result in the assay on Human alphaherpesvirus 1 [9] was Active.

These data come from ChEMBL document CHEMBL1151115, “Brianthein V, a New Cytotoxic and Antiviral Diterpene Isolated from Briareum asbestinum” (J Nat Prod, 1988).
